Key:
5-lipoxygenase = molecular target: T1, 5-lipoxygenase (Cavia porcellus, UniProt A0A286X958); test: Assay of 5-lipoxygenase (PMNL cytosol fraction, 5-HETE formation); format: biochemical, guinea pig (male Hartley strain); settings: 3 min pre-incubation, then [1-14C]arachidonic acid 5 min, 37° C., 1% DMSO, 5-HETE counted
T1 construct: 105,000×g for 60 min to obtain the cytosol fraction; endogenous in cells; host or cells: casein-elicited peritoneal polymorphonuclear leukocytes of male Hartley guinea pigs, 105,000×g cytosol fraction
T1 sequence (A0A286X958 1-674): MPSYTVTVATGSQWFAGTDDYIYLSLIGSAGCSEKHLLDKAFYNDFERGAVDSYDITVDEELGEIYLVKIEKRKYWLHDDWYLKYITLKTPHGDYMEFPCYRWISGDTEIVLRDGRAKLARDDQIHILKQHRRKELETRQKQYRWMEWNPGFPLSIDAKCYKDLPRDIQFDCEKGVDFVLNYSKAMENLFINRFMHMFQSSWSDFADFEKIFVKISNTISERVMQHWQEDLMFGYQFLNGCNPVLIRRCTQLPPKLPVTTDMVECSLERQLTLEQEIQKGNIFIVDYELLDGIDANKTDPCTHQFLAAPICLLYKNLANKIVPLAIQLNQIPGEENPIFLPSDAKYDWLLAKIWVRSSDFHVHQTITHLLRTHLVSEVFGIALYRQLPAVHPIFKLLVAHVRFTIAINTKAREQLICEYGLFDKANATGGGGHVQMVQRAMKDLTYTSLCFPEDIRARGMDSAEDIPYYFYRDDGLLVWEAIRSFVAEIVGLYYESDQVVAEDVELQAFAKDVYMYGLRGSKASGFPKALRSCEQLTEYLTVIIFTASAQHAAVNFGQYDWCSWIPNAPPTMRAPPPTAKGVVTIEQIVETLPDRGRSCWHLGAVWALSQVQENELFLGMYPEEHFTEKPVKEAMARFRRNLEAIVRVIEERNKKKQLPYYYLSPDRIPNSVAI
Method: Assay of 5-lipoxygenase […] Male Hartley strain guinea pigs weighing 580~740 g received intraperitoneal injection of 2% casein in saline (5 ml/100 g body weight). After 16~18 hr, the guinea pigs were sacrificed by bleeding from the carotid artery. Then 50 ml of Dulbecco's phosphate-buffered saline (PBS(-)) containing 5 units/ml of heparin were injected into the peritoneal cavity and peritoneal exudate was collected. The exudate was combined and filtered through 4 layers of cheese cloth, followed by centrifugation at 1,000 rpm for 10 min. Cell pellets were suspended in small amounts of PBS(-) and treated 3 volumes of 0.2% NaCl to lyse contamination red blood cells. The cells (80% or more PMNL as identified by Wright-Giemsa stain) were washed twice with buffer A (130 mM NaCl, 25 mM phosphate, pH 7.4, 1 mM EDTA). The washed cells (1×10^8 cells/ml) were resuspended in 50 mM phosphate (pH 7.4) containing 1 mM EDTA and 0.1% gelatin, sonicated and centrifuged at 10,000×g for 20 min. The supernatant solution was further centrifuged at 105,000×g for 60 min to obtain the cytosol fraction. Enzyme assays Test compounds were dissolved in dimethyl sulfoxide (DMSO), and the final concentration of DMSO was kept at 1% in each experiment. […] Each reaction was terminated by precipitating the proteins with 1 ml acetone and added 0.5 ml ice-cold saline. The pH was adjusted to about 3 with 150 μl 2N formic acid. The mixture was extracted twice with 2 ml chloroform. […] Radioactive zone of 5-HETE [5(S)-hydroxy-6,8,11,14-eicosatetraenoic acid] was detected by autoradiography, scraped from the TLC plates, and counted by a liquid scintillation counter. IC50 (50% Inhibition Concentration) value indicates the concentration to decrease the enzymatic product by 50% as compared to that of vehicle-treated control.

platelet cyclooxygenase = molecular target: T2, platelet cyclooxygenase (Oryctolagus cuniculus, UniProt O97554); test: Assay of platelet cyclooxygenase (intact washed platelets, TXB2 formation); format: cell-based, rabbit (male New Zealand White); settings: 3 min pre-incubation, then [1-14C]arachidonic acid 5 min, 37° C., TXB2 counted
T2 construct: 1 ml of intact washed platelet suspensions were pre-incubated with test compounds; endogenous in cells; host or cells: intact washed platelets of male New Zealand White rabbits
T2 sequence (O97554 31-606): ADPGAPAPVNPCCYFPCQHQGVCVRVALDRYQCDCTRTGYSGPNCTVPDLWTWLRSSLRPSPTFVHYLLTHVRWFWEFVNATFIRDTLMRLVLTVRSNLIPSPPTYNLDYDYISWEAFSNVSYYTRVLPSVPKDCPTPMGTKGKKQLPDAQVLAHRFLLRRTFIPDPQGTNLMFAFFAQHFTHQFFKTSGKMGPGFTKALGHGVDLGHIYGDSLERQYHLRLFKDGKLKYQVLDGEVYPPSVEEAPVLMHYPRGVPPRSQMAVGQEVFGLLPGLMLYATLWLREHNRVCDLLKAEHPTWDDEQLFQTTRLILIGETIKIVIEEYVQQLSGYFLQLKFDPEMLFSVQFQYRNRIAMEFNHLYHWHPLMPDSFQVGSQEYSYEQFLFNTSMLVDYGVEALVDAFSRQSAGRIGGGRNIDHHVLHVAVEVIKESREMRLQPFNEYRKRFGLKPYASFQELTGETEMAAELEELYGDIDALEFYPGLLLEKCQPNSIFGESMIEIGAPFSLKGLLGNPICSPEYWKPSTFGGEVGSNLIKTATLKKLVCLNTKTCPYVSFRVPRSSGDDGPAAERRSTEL
Method: Assay of platelet cyclooxygenase
Preparation of washed platelet
Citrated blood (blood/3.8% sodium citrate=9:1 by volume) was obtained by heart-puncture from male New Zealand White rabbits weighing 3.21~4.75 kg and centrifuged at 1,000 rpm for 10 min. The platelet-rich plasma (the supernatant layer: PRP) was further centrifuged at 3,000 rpm for 10 min, and the resulting platelet was washed twice with buffer A (130 mM NaCl, 25 mM phosphate, pH 7.4, 1 mM EDTA). The washed platelets were resuspended in 50 mM phosphate (pH 7.4) containing 1 mM EDTA and adjusted 1×10^8 platelets/ml.
For the platelet cyclooxygenase assays, 1 ml of intact washed platelet suspensions were pre-incubated with test compounds (dissolved in DMSO) in the presence of 1 mM GSH at 37° C. for 3 min, and then the mixture was incubated with [1-^14 C]arachidonic acid (0.1 μCi) at 37° C. for 5 min. Each reaction was terminated and extracted by the addition of 3 ml of ethyl acetate/methanol/1M citric acid (30:4:1, v/v). The organic layer was evaporated under a N2 gas stream, redissolved in 30 μl of chloroform/methanol (2:1, v/v), and applied 20 μl to Silica gel TLC plates, and developed in the solvent system chloroform/methanol/acetic acid/H2 O (90:8:1:0.8, v/v). Radioactive zone of TXB2 (Thromboxane B2) was detected by autoradiography, scraped from the TLC plates, and counted by a liquid scintillation counter. IC50 value indicates the concentration to decrease the enzymatic product by 50% as compared to that of vehicle-treated control.

lipoxygenase = settings: background art; cited from earlier work
cyclooxygenase = settings: background art; cited from earlier work

Row | Compound | IC50 (5-lipoxygenase) | IC50 (platelet cyclooxygenase) | lipoxygenase inhibition (in words) (lipoxygenase) | cyclooxygenase inhibition (in words) (cyclooxygenase)
1 | COc1ccc2c(c1)c(CC(=O)OC(CN1CCN(CCCCCCCCCCO)CC1)c1ccccc1)c(C)n2C(=O)c1ccc(Cl)cc1 (stereo not shown) [Example 12, 2-{4-(10-hydroxydecyl)-1-piperazinyl}-1-phenylethyl 1-(p-chlorobenzoyl)-5-methoxy-2-methyl-3-indoylacetate dimaleate] | 0.9 µM |  |  | 
2 | COc1ccc2c(c1)c(CC(=O)OC(C)CN1CCN(CCCCCCO)CC1)c(C)n2C(=O)c1ccc(Cl)cc1 (stereo not shown) [Example 11, 2-{4-(6-hydroxyhexyl)-1-piperazinyl}-1-methylethyl 1-(p-chlorobenzoyl)-5-methoxy-2-methyl-3-indoylacetate dimaleate] | 4.7 µM | 41.2 µM |  | 
3 | COc1ccc2c(c1)c(CC(=O)OC(C)(C)CN1CCN(CCCOC3CCCCO3)CC1)c(C)n2C(=O)c1ccc(Cl)cc1 (stereo not shown) [Example 13, 1-methyl-2-[4-{3-(2-tetrahydropyranyloxy)propyl}-1-piperazinyl]-2-methyl-2-propyl 1-(p-chlorobenzoyl)-5-methoxy-2-methyl-3-indoylacetate] | 4.7 µM | 22.3 µM |  | 
4 | COc1ccc2c(c1)c(CC(=O)OC(CN1CCN(CCCO)CC1)c1ccccc1)c(C)n2C(=O)c1ccc(Cl)cc1 (stereo not shown) [Example 7, 2-{4-(3-hydroxypropyl)-1-piperazinyl}-1-phenylethyl 1-(p-clorobenzoyl)-5-methoxy-2-methyl-3-indoylacetate dimaleate] | 1.6 µM | 20.4 µM |  | 
5 | COc1ccc2c(c1)c(CC(=O)OC(C)CN1CCN(CCCO)CC1)c(C)n2C(=O)c1ccc(Cl)cc1 (stereo not shown) [Example 8, 2-{4-(3-hydroxypropyl)-1-piperazinyl}-1-methylethyl 1-(p-chlorobenzoyl)-5-methoxy-2-methyl-3-indoylacetate dimaleate] | 6.9 µM | 30.6 µM |  | 
6 | CC(C(=O)O)c1ccc2oc(-c3ccc(Cl)cc3)nc2c1 (stereo not drawn) [Benoxaprofen, 2-(4-chlorophenyl)-α-methyl-5-benzoxazoleacetic acid] | 24 µM |  | lipoxygenase-inhibiting actions | cyclooxygenase-inhibiting
7 | COc1ccc2c(c1)c(CC(=O)OC(C)CN1CCN(CCCCCO)CC1)c(C)n2C(=O)c1ccc(Cl)cc1 (stereo not shown) [Example 10, 2-{4-(5-hydroxypentyl)-1-piperazinyl}-1-methylethyl 1-(p-chlorobenzoyl)-5-methoxy-2-methyl-3-indoylacetate dimaleate] | 6.2 µM | 22.8 µM |  | 
8 | COc1ccc2c(c1)c(CC(=O)O)c(C)n2C(=O)c1ccc(Cl)cc1 [Indomethacin] | 242 µM |  | does not inhibit lipoxygenase reaction | has cyclooxygenase-inhibiting action
9 | COc1ccc2c(c1)c(CC(=O)OC(CN1CCN(CCO)CC1)c1ccccc1)c(C)n2C(=O)c1ccc(Cl)cc1 (stereo not shown) [Example 9, 2-{4-(2-hydroxyethyl)-1-piperazinyl}-1-phenylethyl 1-(p-chlorobenzoyl)-5-methoxy-2-methyl-3-indoylacetate dimaleate] | 1.7 µM | 9.2 µM |  | 

From patent US4696929A, “Derivative of piperazine having anti-allergic and anti-inflammatory action” (Taiho Pharmaceutical Company, Limited, priority 1984, dated 1987)
